86 compounds from a melting point compilation (Tetko et al.; mined from patent text by program, amines drawn as free bases though some values may be those of a salt) can be followed below.

One may read the melting point as the temperature of the solid-liquid transition. On to `CC(CN(C)C)Oc1ccc(-c2nn(CC(=O)O)c3ncccc23)cc1` (stereo unspecified), for which the melting point was 210 to 211 °C.
Then `O=C(Nc1ccc(-c2c[nH]c(=O)cn2)cc1)c1ccncc1`, with 303 to 308 °C; and `Cc1ccc(OCC(=O)N(Cc2nc(-c3ccc(C)cc3)no2)C(C)C)cc1`, with 142 to 143 °C.
Then `CCCn1cc(-c2ccncc2)cc(N)c1=O`, with 171 to 173 °C.
For `Cc1nc2c(C)cccn2c(=O)c1CCN1CC=C(c2c[nH]c3ccc(F)cc23)CC1` the value was 229 to 230 °C.
`COc1ccnc(C(=O)c2[nH]c3cc(Cl)ccc3c2NC(=O)CC(C)C)c1` had a melting point of 162 to 163 °C.
Then `O=c1c(-c2ccc(Cl)cc2)c2c(cn1CO)Sc1ccccc1N2`, with > 300 °C; and `CCOC(=O)N1Cc2ccccc2C(Oc2ccc(Cl)cc2)C1` (stereo unspecified), with 78.5 to 79.5 °C; and `Cc1cc(C)cc(CC(C)(C)NCC(O)c2cc(OCc3ccccc3)cc3c2OCC(=O)N3)c1` (stereo unspecified), with 220 to 222 °C.
Then `O=c1cc2c(nn1-c1ccc(Cl)cc1)-c1ccccc1S(=O)(=O)CC2`, with > 310 °C; and `O=C(c1ccc([N+](=O)[O-])cc1)N1CCN(c2ccncc2)CC1`, with 158 to 160 °C; and `CNC(=NS(=O)(=O)N1CCCCC1)N1CC(c2ccccc2)C(c2ccc(Cl)cc2)=N1` (stereo unspecified), with 175 to 177 °C.
For `O=C1CCN(C(=O)c2ccc3nonc3c2)CC1` the value was 136 to 139 °C; for `CCC(CC)C1CC(=O)C(C(=O)NS(=O)(=O)c2ccc(C)cc2)C(=O)C1` (stereo unspecified), 112 °C.
In turn, `N=C(N)Nc1nc(-c2cccc([N+](=O)[O-])c2)no1` yielded a melting point of 290 to 291 °C.
For `CCOC(=O)C(O)=Cc1ncc(Cc2ccc(F)cc2)s1` the value was 160 to 162 °C; for `COC(=O)C1=C(C)NC2=C(C(=O)CN(CC(O)COc3cccc(C)c3C)C2)C1c1c(F)ccc(Cl)c1Cl` (stereo unspecified), 190 to 193 °C.
Then `COC(=O)c1cc(-c2nc(COc3ccc(CO)cc3OC)c(C)o2)ccc1OS(C)(=O)=O`, with 126 to 127 °C; and `CCc1cccc2sc(COc3ccc(F)c(C(N)=O)c3F)nc12`, with 184 to 186 °C.
Then `CN1C(O)=C(c2ccccc2)N=NC1(C)N` (stereo unspecified), with 91 °C.
`COc1cccc(CC2NC(=O)NC2=O)c1OCc1ccccc1` (racemic) had a melting point of 202 to 204 °C.
Then `CN1CCc2c(c(Br)cc3nc(OCc4ccccc4)c(OCc4ccccc4)nc23)C1`, with 147 °C; and `C=CCc1c(O)ccc2oc(C(=O)c3ccc(OC)cc3)c(C)c12`, with 155 to 158 °C.
For `O=C1CC2OC(CBr)CN12` (stereo unspecified) the value was 49 to 50 °C; for `Cc1cccc(Cl)c1OC1CN(C(=O)Cl)C1`, 67 to 69 °C.
Then `CC(C)(C)OC1OC(=O)C2C1C2(C)C` (stereo unspecified), with 115 °C.
Compound `C=CCc1cc(Cc2cnc(N)nc2N)c2cccnc2c1OC` registered a melting point of 227 to 228 °C.
As to `CCCCc1noc(-c2sccc2N)n1`, the melting point lay in the range of 69 to 70 °C.
Then `Cn1ncc(/C=C/C(=O)Nc2ccc(CN3C(=O)COC3=O)cc2)c1-c1ccc(F)cc1`, with 239 to 240 °C.
Compound `COc1cccc2c1C(=O)c1c(OC)cc(C(=O)N(C)OCc3ccccc3)cc1C2=O` displayed a melting point of 170 to 171 °C.
Consider `COC(=O)c1cc([N+](=O)[O-])nn1C`, for which the melting point was in the range of 65 to 66 °C.
`CC(C)[C@H](NC(=O)OCc1ccccc1)C(=O)NC(Cc1ccccc1)C(O)C(Cc1ccccc1)NC(=O)OC(C)(C)C` (stereo partly specified) displayed a melting point of 187 to 188 °C.
For `COc1cc2c(cc1O)CCC1C2CCC2(C)C(O)C=CC12` (stereo unspecified) the value was 191 to 193 °C; for `CC1CC(=O)c2c(C(=O)Nc3ccc(F)cc3)c[nH]c2C1` (stereo unspecified), 262 to 264 °C; for `COc1ccc(-c2c([N+](=O)[O-])c3ccc(OC)cc3c(=O)n2CC#N)cc1`, 194 to 196 °C.
In the case of `COc1ccc(-c2c(NC(C)(C)Cc3ccccc3)c(=O)c2=O)cc1`, the melting point fell in the range of 150 to 151 °C.
For `CCCn1nc(C2CC2)c(C(=O)OCC)c1Cc1ccc(-c2ccccc2-c2nnn[nH]2)cc1` the value was 148 to 149 °C; for `CNC(=O)C(Cc1ccc2ccccc2c1)NC(=O)OC(C)(C)C` (stereo unspecified), 177 to 179 °C.
For `C[C@H](O)CNc1cc(OCc2ccccc2)ccc1C=O` the value was 68 to 69 °C; for `O=C1/C(=C(\NCCO)c2ccccc2)Sc2ccccc21`, 122 to 123 °C.
For `C#CCOC(=O)c1ncn2c1CN(C)C(=O)c1cc(F)ccc1-2` the value was 220 to 222 °C.
`Cc1ccc(C(=O)c2ccc(Cc3c(Cl)cc([N+](=O)[O-])cc3Cl)cc2)cn1`: the melting point lay within 121 to 123 °C.
For `CCOC(=O)c1c(CCCn2ccnc2)nc2cc(OC)c(OC)cc2c1-c1ccc(OC)c(OC)c1` the value was 164 to 165 °C; for `CC(=O)CC(=O)c1ccc(OCCCN2CCCCC2)cc1`, 43 to 45.5 °C; for `CSc1ccc(-c2cc(-c3nc4ccccc4c(=O)n3-c3ccc(C)cc3)sc2N2CCOCC2)cc1`, 238 to 240 °C.
For `CCCc1c(OCc2cccn3c(=O)c(CC(=O)OCC)cnc23)ccc(C(C)=O)c1O` the value was 134 to 135 °C.
`COc1ccc(OC)c2[nH]c(-c3ccc(Cl)cc3)nc12`: the melting point is 274 to 276 °C.
Then `Cc1ccc(-c2cc(C(=O)C=Cc3ccc(C(=O)O)cc3)cc(C(C)(C)C)c2OCc2ccccc2)cc1`, with 208 °C; and `Cc1nnc2n1-c1ccc(Cl)cc1C(c1ccccc1)=CC2`, with 235 °C; and `O=C(O)c1ccc(F)c(C(F)(F)F)c1F`, with 108 to 110 °C.
For `Fc1ccccc1-c1nc2c(s1)NCCCC2` the value was 115 to 116 °C; for `CC(=O)c1ccc(NS(C)(=O)=O)c(C(=O)c2ccc(F)cc2F)c1`, 114 to 117 °C; for `COc1cc(-n2nc(C(F)(F)F)cc2-c2ccc(-c3ccco3)cc2)ccc1S(N)(=O)=O`, 207 °C.
For `CSc1ccc(C(=O)NCc2ccc3c(c2)C(=O)N(C2(C)CCC(=O)NC2=O)C3=O)nc1` (stereo unspecified) the value was 210 to 212 °C; for `Cc1ccc(C)c(CN2CCN(C)CC(NC(=O)c3n[nH]c4ccccc34)C2)c1` (stereo unspecified), 168 to 170 °C.
On to `O=C(Nc1ccc(-n2nc(C3CC3)cc2C2CC2)cc1)c1ccc2nn[nH]c2c1`, for which the melting point lay in the range of 240 to 246 °C.
For `O=c1[nH]c2ccc3c(c2[nH]1)OC(CO)CC3` (stereo unspecified) the value was 240 °C; for `CC(C)(COc1ccc(Cl)cc1)C(=O)C(Oc1ccc(Cl)cc1)n1ccnc1` (stereo unspecified), 214 to 217 °C.
Then `O=c1[nH]c2cc(Cl)ccc2c(CCc2nnn[nH]2)c1-c1ccccc1`, with 231 to 233 °C; and `Cn1c(=O)c(=O)n(Cc2ccc(Cl)cc2Cl)c2cc(C(=O)O)ccc21`, with 320 to 322 °C; and `Oc1ccc(-c2ccc(CCC(O)CCc3cccnc3)cc2)cc1` (stereo unspecified), with 140 to 143 °C.
For `CC(=O)SCC(C)C(=O)N(CC(=O)O)C1CC1` (stereo unspecified) the value was 86 to 88 °C.
As to `OCCCCCCCCCCCc1ccc(O)c(O)c1`, the melting point was 92 to 93 °C.
`CCCC(=O)c1cnc2ccsc2c1Nc1ccccc1C` yielded a melting point of 114 to 116 °C.
With `CN(C(=O)c1ccc2nonc2c1)C1CCC1`, the melting point was in the range of 51 to 52 °C.
Then `COc1cccc(Cc2ccc(N)c(C#N)c2)c1`, with 81 to 82 °C; and `COc1cc(CCCC2SC(=O)NC2=O)cc(OC)c1OCc1ccccc1` (stereo unspecified), with 101 to 102 °C.
Then `CCc1cc(O)c2cccc(OC)c2n1`, with 190 to 192 °C; and `C(=Cc1ccc(-c2noc3ccccc23)cc1)c1ccc(-c2nc(-c3ccccc3)no2)cc1`, with 216 to 217 °C; and `CCNC(=O)Nc1ccc(-c2sc3c(c2CN(C)CCOCCOCC)c(=O)n(-c2ccccc2)c(=O)n3Cc2c(F)cccc2F)cc1`, with 230 to 233 °C.
For `C[C@@H](NC(=O)OC(C)(C)C)c1nc2c(C(F)(F)F)cccc2c(O)c1C(=O)Nc1nccs1` the value was 265 °C; for `CCCCC1=NC2(CCCC2)C(=O)N1Cc1ccc(-c2ccccc2S(=O)(=O)Nc2onc(C)c2C)c(CC(C)C)c1`, 58 to 61 °C.
`Cc1ccc(S(=O)(=O)N2CCN(C(=O)c3ccc(Nc4ccnc5cc(C(F)(F)F)ccc45)cc3)CC2)cc1` displayed a melting point of 215 to 217 °C.
Then `CSc1ncnc2c1ncn2COC(COC(C)=O)COC(C)=O`, with 191 to 193 °C; and `COc1ccc2[nH]c(=O)c(-c3nnn(Cc4cccc(OCc5ccc6ccccc6n5)c4)n3)cc2c1`, with 213 to 214 °C.
Regarding `CC(C)n1nc(-c2cc(C#N)c(C(N)=O)nc2-c2ccccc2)ccc1=O`, the melting point fell in the range of 221 to 223 °C.
For `O=C1C(Cc2ccccc2Cl)c2cc([N+](=O)[O-])ccc2ON1CCO` (stereo unspecified) the value was 108 to 110 °C; for `COc1ccc(C(=O)Nc2ccc(-c3ccc(C)cc3Cl)cc2)cc1CCCN(C)C`, 63 to 66 °C; for `Cc1cc(F)ccc1-c1nc(NC2CCOCC2)nc2c1ccc(=O)n2-c1ccccc1F`, 211 to 212 °C.
`CCc1cnc2c(NC(=O)c3c(Cl)cccc3Cl)cccc2c1C(=O)O` yielded a melting point of 231 to 233 °C.
Then `N#Cc1ccc(-c2ccc(OCC(CN3C(=O)c4ccccc4C3=O)N(O)C=O)cc2)cc1` (stereo unspecified), with 199 to 202 °C; and `CC1(C(F)(F)F)C=C(C(=O)NCCC#N)c2cc([N+](=O)[O-])ccc2O1` (stereo unspecified), with 191 to 193 °C.
For `NC(N)=Nc1nc(-c2ccc(-c3nc(N)n[nH]3)o2)cs1` the value was > 300 °C; for `O=C(NCc1ccccc1)c1ccnc(NC(=O)c2cc(F)cc(F)c2)c1`, 185 to 187 °C; for `CCCCCc1c(C(C)C)nc(C(C)C)c(C(C)CO)c1-c1ccc(F)cc1` (stereo unspecified), 77 to 79 °C.
For `CCOC(=O)C1=C(NC(=O)Nc2cc(C(=O)OC(C)C)c(Cl)cc2Cl)CCC1` the value was 140 to 142 °C.
